How the values were obtained:
[1] = test system: 4T1-luc2 tumor metastasis; assay: 4T1-luc2 tumor resection model, tumor metastasis; assay type: in vivo, BALB/c mice; conditions: 23 days post tumor resection
Procedure: 4T1-luc2 cells (5×10^5 cells/100 μl PBS) were orthotopically implanted into mammary fat-pad of BALB/c mice. Primary tumor growth was evaluated by measuring tumor weight and by monitoring bioluminescent imaging of mammary tumors (BL1) every 7 days. For tumor resection mouse model, 4T1-luc2 cells (5×10^5 cells/100 μl PBS) were orthotopically implanted into mammary fat pad of test mice. At day 21 post tumor implantation, the tumor mass was gently surgically removed. Bioluminescent imaging of metastatic tumor was monitored by using Non-invasive in vivo imaging system (IVIS). The body weight of the test mouse was approximately 25 g.
For this experiment, at 21 days post orthotopic tumor implantation, the tissue mass of 4T1-luc2 tumors in test mice was surgically removed.
At 21 days post implantation, the tumor mass was surgically removed gently. Following surgery, each treatment group was randomly divided into control, F1 and the docetaxel groups (i.e., via iv injection with 10 mg docetaxel/kg every other 3 days). […] The BLI values for each mouse was quantitatively measured and pooled for each test group.
(§1) Mice were sacrificed at 23 days post tumor resection, lung, liver and spleen of test mice were excised and tumor metastasis measured by bioluminescent imaging.

[2] = test system: granulocytic and monocytic MDSCs; assay: MDSC populations in organs of tumor-resected mice (flow cytometry); assay type: in vivo, BALB/c mice; conditions: 23 days post tumor resection
Description: Lung tissues of test mice were harvested and minced with 150 U/mL Type I Collagenase in tissue grinders for 20 to 50 times. After digestion and lysed with ACK buffer, grinded tissues were collected and filtered through 40 μm cell strainer. Spleen tissues were minced gently with PBS in tissue grinders. After lysed with ACK buffer, cells were collected for further analysis. Blood were lysed with ACK buffer for 3 times and harvested for further analysis. All cells were collected and stained with anti-CD11b, and anti-Ly6G/Ly-6C for flow cytometry analysis.
The myeloid derived suppressor cell (MDSC) populations in spleen tissue of each test group were investigated.
as §1

## CC(=O)O[C@@]12CO[C@@H]1C[C@H](O)[C@@]1(C)C(=O)[C@H](O)C3=C(C)[C@@H](OC(=O)[C@H](O)[C@@H](NC(=O)OC(C)(C)C)c4ccccc4)C[C@@](O)([C@@H](OC(=O)c4ccccc4)[C@H]21)C3(C)C [docetaxel]
[1]
  tumor metastasis into lung (bioluminescent imaging of excised organs): effectively inhibited
[1]; BP-E-F1 oral 5 mg/kg/day, docetaxel iv 10 mg/kg every other 3 days
  BLI value (bioluminescent imaging, whole body): effectively reduce
[1]; F1 oral 5 mg/kg/day, docetaxel iv 10 mg/kg every other 3 days
  metastasis rate: 12.5%
[2]
  4T1 tumor-induced accumulation of granulocytic MDSCs in lung, peripheral blood and spleen: significantly reduced

— patent publication US20170360863A1, “USE OF POLYACETYLENIC GLYCOSIDES FOR SUPPRESSION OF GRANULOCYTIC MYELOID-DERIVED SUPPRESSOR CELL ACTIVITIES AND TUMOR METASTASIS” (Academia Sinica, priority 2014, published 2017)
